Our source for the IC50 and Ki values is ChEMBL document CHEMBL1909046, “DrugMatrix in vitro pharmacology data”.

Assay [1] concerns the target Receptor tyrosine-protein kinase erbB-2 (Homo sapiens, UniProt P04626). Briefly: biochemical. The class given is cell-based, Insect cells. To be noted: insect cells.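 Note: inhibition of HER2 kinase enzyme activity, measured with Poly(Glu:Tyr) as the phosphorylation substrate; in other assays of this panel Not Active means under 50% inhibition at 10 µM.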
Assay [2] deals with T1, Neuropeptide Y receptor type 2 (Homo sapiens, UniProt P49146).
T1 sequence (P49146 whole entry): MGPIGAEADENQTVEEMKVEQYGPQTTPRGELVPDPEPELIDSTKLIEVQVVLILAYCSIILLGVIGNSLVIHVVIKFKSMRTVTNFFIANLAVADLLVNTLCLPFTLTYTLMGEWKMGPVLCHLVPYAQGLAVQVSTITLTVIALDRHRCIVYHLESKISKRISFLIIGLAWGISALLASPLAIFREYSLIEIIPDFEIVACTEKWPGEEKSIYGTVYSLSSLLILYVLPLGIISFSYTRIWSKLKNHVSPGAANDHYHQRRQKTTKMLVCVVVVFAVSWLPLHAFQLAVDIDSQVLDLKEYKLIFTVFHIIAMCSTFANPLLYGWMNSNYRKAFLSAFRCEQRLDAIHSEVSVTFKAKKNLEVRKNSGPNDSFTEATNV
The class given is cell membranes, Membrane. The following applies: kan-ts.

For the next assay, the target named is T2, Substance-K receptor (Homo sapiens, UniProt P21452). Note: in other assays of this panel Not Active means under 50% inhibition at 10 µM.
T2 sequence (P21452 whole entry): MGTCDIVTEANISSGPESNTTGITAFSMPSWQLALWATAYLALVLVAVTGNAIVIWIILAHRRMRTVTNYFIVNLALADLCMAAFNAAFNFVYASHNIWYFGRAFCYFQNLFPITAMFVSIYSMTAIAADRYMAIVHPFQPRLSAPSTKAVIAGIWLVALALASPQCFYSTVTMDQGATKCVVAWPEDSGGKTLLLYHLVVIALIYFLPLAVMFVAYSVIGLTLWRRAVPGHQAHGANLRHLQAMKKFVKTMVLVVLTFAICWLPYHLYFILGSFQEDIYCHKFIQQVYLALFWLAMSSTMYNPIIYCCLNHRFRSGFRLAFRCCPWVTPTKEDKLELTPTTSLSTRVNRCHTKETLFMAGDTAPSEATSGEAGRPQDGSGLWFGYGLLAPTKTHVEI
The class given is cell membranes, CHO, Membrane.

In assay [3] the target is T3, Neuropeptide Y receptor type 1 (Homo sapiens, UniProt P25929). Note: in other assays of this panel Not Active means under 50% inhibition at 10 µM.
T3 sequence (P25929 whole entry): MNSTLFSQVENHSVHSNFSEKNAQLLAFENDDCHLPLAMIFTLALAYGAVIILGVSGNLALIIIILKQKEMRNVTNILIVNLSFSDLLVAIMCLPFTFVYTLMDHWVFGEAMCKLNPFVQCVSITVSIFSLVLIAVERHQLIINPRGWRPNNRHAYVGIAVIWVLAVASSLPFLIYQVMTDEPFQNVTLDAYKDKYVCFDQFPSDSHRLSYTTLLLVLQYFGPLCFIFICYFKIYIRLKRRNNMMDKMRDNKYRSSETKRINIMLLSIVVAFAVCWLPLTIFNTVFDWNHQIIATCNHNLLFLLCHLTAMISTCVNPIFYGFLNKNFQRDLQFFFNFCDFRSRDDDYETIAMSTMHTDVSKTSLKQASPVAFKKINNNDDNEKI
The class given is cell membranes, Membrane. To be noted: sk-n-mc.

The target in assay [4] is T4, Alpha-1A adrenergic receptor (Rattus norvegicus, UniProt P43140).
T4 sequence (P43140 whole entry): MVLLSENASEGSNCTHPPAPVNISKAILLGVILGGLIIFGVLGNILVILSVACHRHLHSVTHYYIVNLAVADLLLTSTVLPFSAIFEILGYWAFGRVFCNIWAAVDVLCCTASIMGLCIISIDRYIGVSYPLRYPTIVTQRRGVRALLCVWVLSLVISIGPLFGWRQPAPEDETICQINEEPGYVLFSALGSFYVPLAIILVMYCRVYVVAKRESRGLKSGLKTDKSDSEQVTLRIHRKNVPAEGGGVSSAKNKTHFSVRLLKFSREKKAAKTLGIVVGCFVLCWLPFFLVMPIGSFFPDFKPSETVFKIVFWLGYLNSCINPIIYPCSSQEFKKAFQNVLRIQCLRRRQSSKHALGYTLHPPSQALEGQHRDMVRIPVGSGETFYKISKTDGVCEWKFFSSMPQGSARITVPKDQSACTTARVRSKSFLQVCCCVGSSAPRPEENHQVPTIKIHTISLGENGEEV
Nature of the assay: DRUGMATRIX: Alpha-1A adrenergic receptor radioligand binding (ligand: prazosin). The class given is cell membranes, Wistar, Submaxillary gland, Membrane. The following applies: Not Active = under 50% inhibition at 10 µM.

Another assay addresses Nitric oxide synthase 1 (Rattus norvegicus, UniProt P29476). The class given is tissue-based, Cerebellum.
The next assay concerns the target T5, B2 bradykinin receptor (Homo sapiens, UniProt P30411). Note: in other assays of this panel Not Active means under 50% inhibition at 10 µM.
T5 sequence (P30411 whole entry): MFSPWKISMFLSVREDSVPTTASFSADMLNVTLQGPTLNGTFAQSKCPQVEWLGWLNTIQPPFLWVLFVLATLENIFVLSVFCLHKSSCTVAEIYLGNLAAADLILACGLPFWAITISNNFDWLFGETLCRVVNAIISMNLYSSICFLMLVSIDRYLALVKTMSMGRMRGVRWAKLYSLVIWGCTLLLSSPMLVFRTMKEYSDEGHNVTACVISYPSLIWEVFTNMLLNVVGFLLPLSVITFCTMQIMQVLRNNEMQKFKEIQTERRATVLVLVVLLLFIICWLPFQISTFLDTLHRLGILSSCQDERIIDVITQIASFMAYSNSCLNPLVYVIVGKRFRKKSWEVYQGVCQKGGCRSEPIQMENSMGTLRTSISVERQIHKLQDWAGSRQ
The class given is cell membranes, Membrane. The following applies: chem-1.

Chain of Nitric oxide synthase 1 (P29476 whole entry): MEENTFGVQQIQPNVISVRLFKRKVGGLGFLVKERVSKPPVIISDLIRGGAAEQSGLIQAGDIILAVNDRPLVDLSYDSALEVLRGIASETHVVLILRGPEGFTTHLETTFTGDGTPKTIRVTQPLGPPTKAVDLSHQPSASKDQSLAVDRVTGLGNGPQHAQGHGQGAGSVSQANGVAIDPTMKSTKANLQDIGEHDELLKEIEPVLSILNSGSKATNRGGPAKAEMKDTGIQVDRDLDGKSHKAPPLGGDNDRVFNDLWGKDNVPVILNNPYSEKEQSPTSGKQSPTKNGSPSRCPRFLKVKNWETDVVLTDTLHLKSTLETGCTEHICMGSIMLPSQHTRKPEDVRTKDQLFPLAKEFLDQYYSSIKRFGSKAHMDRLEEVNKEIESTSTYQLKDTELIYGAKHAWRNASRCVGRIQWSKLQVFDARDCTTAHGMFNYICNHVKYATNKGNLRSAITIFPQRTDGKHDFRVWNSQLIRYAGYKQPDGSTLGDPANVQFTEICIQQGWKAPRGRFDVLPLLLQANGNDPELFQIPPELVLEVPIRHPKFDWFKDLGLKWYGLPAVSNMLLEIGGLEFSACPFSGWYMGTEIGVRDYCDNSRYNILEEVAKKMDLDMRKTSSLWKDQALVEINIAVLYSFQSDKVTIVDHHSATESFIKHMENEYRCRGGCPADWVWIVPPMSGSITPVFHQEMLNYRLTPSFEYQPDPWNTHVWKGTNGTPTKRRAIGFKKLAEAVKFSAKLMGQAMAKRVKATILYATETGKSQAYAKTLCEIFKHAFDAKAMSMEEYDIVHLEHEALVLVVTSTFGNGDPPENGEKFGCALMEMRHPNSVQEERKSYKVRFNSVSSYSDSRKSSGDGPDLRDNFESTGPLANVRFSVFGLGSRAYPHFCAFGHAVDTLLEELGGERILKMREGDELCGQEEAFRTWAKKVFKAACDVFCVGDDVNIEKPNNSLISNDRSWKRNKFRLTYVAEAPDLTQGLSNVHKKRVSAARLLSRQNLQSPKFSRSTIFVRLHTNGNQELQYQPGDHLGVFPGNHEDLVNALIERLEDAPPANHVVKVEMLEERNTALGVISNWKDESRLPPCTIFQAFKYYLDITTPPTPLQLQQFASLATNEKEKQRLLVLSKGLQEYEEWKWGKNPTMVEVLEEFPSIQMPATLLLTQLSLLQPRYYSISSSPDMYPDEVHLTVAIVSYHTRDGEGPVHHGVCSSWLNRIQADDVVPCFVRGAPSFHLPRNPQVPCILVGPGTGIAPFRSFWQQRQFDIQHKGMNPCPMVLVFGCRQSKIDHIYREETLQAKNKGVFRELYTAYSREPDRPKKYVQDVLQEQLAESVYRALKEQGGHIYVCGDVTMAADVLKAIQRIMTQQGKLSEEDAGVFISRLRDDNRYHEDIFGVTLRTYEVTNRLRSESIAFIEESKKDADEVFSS

The IC50 is the concentration at which inhibition is half-maximal. For `CC1Cc2ccccc2N1NC(=O)c1ccc(Cl)c(S(N)(=O)=O)c1` (configuration not stated) [INDAPAMIDE], the IC50 entry (in assay [1]; in assay [2]; at Substance-K receptor (cho); in assay [3]; in assay [4]; against Nitric oxide synthase 1) was “Not Active” each time. The IC50 entry against B2 bradykinin receptor is “Not Active”.
As for `CCC1(c2ccc(N)cc2)CCC(=O)NC1=O` (configuration not stated) [AMINOGLUTETHIMIDE], the IC50 result (in assay [1]; in assay [2]; at Substance-K receptor (cho); in assay [3]; in assay [4]; against Nitric oxide synthase 1) was “Not Active” each time. For the same compound, the IC50 entry on B2 bradykinin receptor was “Not Active”.
Take `CNCCCN1c2ccccc2CCc2ccccc21` [DESIPRAMINE]: the IC50 entry (in assay [1]; in assay [2]; at Substance-K receptor (cho); in assay [3]; in assay [4]; on Nitric oxide synthase 1) was “Not Active” throughout. Besides, at B2 bradykinin receptor, the half-inhibitory concentration (IC50) result is “Not Active”.
For the compound `Cc1ccccc1N1C(=O)c2cc(S(N)(=O)=O)c(Cl)cc2NC1C` (configuration not stated) [METOLAZONE], the IC50 result (in assay [1]; in assay [2]; against Substance-K receptor (cho); in assay [3]; in assay [4]; on Nitric oxide synthase 1) was “Not Active” throughout. Further, at B2 bradykinin receptor, the IC50 entry was “Not Active”.
As for `C1CCC(C(CC2CCCCN2)C2CCCCC2)CC1` (configuration not stated) [PERHEXILINE], the IC50 result (in assay [1]; in assay [2]; at Substance-K receptor (cho); in assay [3]; in assay [4]; on Nitric oxide synthase 1) was “Not Active” each time. Besides, the IC50 entry against B2 bradykinin receptor is on record as “Not Active”.
Regarding `N=C(N)NCCN1CCCCCCC1` [GUANETHIDINE], the IC50 entry (in assay [1]; in assay [2]; on Substance-K receptor (cho); in assay [3]; in assay [4]; on Nitric oxide synthase 1) was “Not Active” throughout. For the same compound, on B2 bradykinin receptor, the IC50 result is “Not Active”.
`CC(C)CN(C[C@@H](O)[C@H](Cc1ccccc1)NC(=O)O[C@H]1CCOC1)S(=O)(=O)c1ccc(N)cc1`: the IC50 result (in assay [1]; in assay [2]; against Substance-K receptor (cho); in assay [3]; in assay [4]; against Nitric oxide synthase 1) was “Not Active” each time. On B2 bradykinin receptor, the IC50 result was “Not Active”.
As to `O=c1[nH]c(=O)n([C@H]2C[C@H](O)[C@@H](CO)O2)cc1I` [IDOXURIDINE], the IC50 result (in assay [1]; in assay [2]; against Substance-K receptor (cho); in assay [3]; in assay [4]; at Nitric oxide synthase 1) was “Not Active” in each case. Moreover, the IC50 entry on B2 bradykinin receptor is “Not Active”.
Regarding `C[C@H](CCC(=O)O)[C@H]1CC[C@H]2[C@@H]3[C@H](O)C[C@@H]4C[C@H](O)CC[C@]4(C)[C@H]3C[C@H](O)[C@]12C` [CHOLIC ACID], the IC50 entry (in assay [1]; in assay [2]; on Substance-K receptor (cho); in assay [3]; in assay [4]; against Nitric oxide synthase 1) was “Not Active” each time. On B2 bradykinin receptor, the IC50 entry was “Not Active”.
A word on the Ki: it is the dissociation constant of the complex between target and ligand, obtained from inhibition or displacement. Take `O=C(CCCN1CC=C(n2c(=O)[nH]c3ccccc32)CC1)c1ccc(F)cc1` [DROPERIDOL]: the IC50 entry in assay [1] is “Not Active”; in assay [2], “Not Active”; on Substance-K receptor (cho), “Not Active”; in assay [3], “Not Active”; in assay [4] (read-out: IC50), 1.65 nM; against Nitric oxide synthase 1, “Not Active”. Besides, at B2 bradykinin receptor, the IC50 entry is listed as “Not Active”. Further, the Ki in assay [4] (read-out: Ki) came out at 0.669 nM.
As to `CC(=O)O[C@@]12CO[C@@H]1C[C@H](O)[C@@]1(C)C(=O)[C@H](O)C3=C(C)[C@@H](OC(=O)[C@H](O)[C@@H](NC(=O)OC(C)(C)C)c4ccccc4)C[C@@](O)([C@@H](OC(=O)c4ccccc4)[C@H]21)C3(C)C.O.O.O` [DOCETAXEL], the IC50 result was “Not Active” in assay [1]; “Not Active” in assay [2]; 1560 nM at Substance-K receptor (read-out: IC50); “Not Active” in assay [3]; “Not Active” in assay [4]; “Not Active” at Nitric oxide synthase 1. Further, the IC50 result at B2 bradykinin receptor is reported as “Not Active”. Further, the inhibition constant (Ki) at Substance-K receptor (read-out: Ki) came out at 521 nM.
With `C[C@H]1c2cccc(O)c2C(=O)C2=C(O)[C@]3(O)C(=O)C(C(N)=O)=C(O)[C@@H](N(C)C)[C@@H]3[C@@H](O)[C@@H]21.O` [DOXYCYCLINE], the IC50 entry (in assay [1]; in assay [2]; against Substance-K receptor (cho); in assay [3]; in assay [4]; on Nitric oxide synthase 1) was “Not Active” throughout. Moreover, on B2 bradykinin receptor, the half-inhibitory concentration (IC50) result is “Not Active”.
For the compound CADMIUM ACETATE, the half-inhibitory concentration (IC50) is 1190 nM in assay [1] (read-out: IC50); “Not Active” in assay [2]; “Not Active” against Substance-K receptor (cho); “Not Active” in assay [3]; “Not Active” in assay [4]; “Not Active” against Nitric oxide synthase 1. The IC50 entry on B2 bradykinin receptor was “Not Active”. Also, the Ki result (in assay [2]; at Substance-K receptor (cho); in assay [3]; in assay [4]; on Nitric oxide synthase 1; at B2 bradykinin receptor) was “Not Active” each time.
For `CC(C)[C@@]1(NC(=O)[C@@H]2C[C@@H]3c4cccc5[nH]cc(c45)C[C@H]3N(C)C2)O[C@@]2(O)[C@@H]3CCCN3C(=O)[C@H](Cc3ccccc3)N2C1=O.CS(=O)(=O)O` [DIHYDROERGOCRISTINE MESYLATE], the IC50 result in assay [1] was “Not Active”; in assay [2], “Not Active”; at Substance-K receptor (cho), “Not Active”; in assay [3] it was “Not Active”; in assay [4] (read-out: IC50), 1.62 nM; against Nitric oxide synthase 1, “Not Active”. For the same compound, at B2 bradykinin receptor, the 50% inhibitory concentration (IC50) entry was “Not Active”. Further, in assay [4] (read-out: Ki), the Ki was determined as 0.656 nM.
Regarding LIPOPOLYSACCHARIDE E. COLI O55:B5, the IC50 in assay [1] (read-out: IC50) is 449 nM; in assay [2], “Not Active”; against Substance-K receptor (cho), “Not Active”; in assay [3], “Not Active”; in assay [4], “Not Active”; against Nitric oxide synthase 1 it was “Not Active”. On B2 bradykinin receptor, the IC50 result is “Not Active”. Besides, the Ki result (in assay [2]; at Substance-K receptor (cho); in assay [3]; in assay [4]; on Nitric oxide synthase 1; at B2 bradykinin receptor) was “Not Active” throughout.
Turning to `Nc1c(Br)cc(Br)cc1CN[C@H]1CC[C@H](O)CC1` [AMBROXOL], the IC50 entry (in assay [1]; in assay [2]; against Substance-K receptor (cho); in assay [3]; in assay [4]; against Nitric oxide synthase 1) was “Not Active” throughout. Besides, the IC50 result on B2 bradykinin receptor is recorded as “Not Active”.
